Measurements taken from EP4696306A1, “ADENOSINE TRIPHOSPHATE SECRETION INHIBITOR, HEPATIC STELLATE CELL ACTIVATION INHIBITOR, HEPATIC STELLATE CELL DEACTIVATOR, HEPATIC FIBROSIS THERAPEUTIC AGENT, NON-ALCOHOLIC STEATOHEPATITIS THERAPEUTIC AGENT, PSORIASIS THERAPEUTIC AGENT, AND USE OF COMPOUND FOR PRODUCING ADENOSINE TRIPHOSPHATE …” (KURUME UNIVERSITY, priority 2023, dated 2024).
Where a name gives a salt, the structure may show the parent alone.

Tests used:
catecholamine transport = assay: Catecholamine (3H-dopamine) transport in chromaffin granule membranes; assay type: biochemical, bovine; details: MANT-ATP; N = 3
Protocol: (§1) Chromaffin granule membranes were prepared from adrenal glands collected from slaughtered cattle according to Reference A (Nathan Nelson et al., 1988, Chromaffin Granule Proton Pump, Methods in Enzymology, 157, 619-633). Chromaffin granule membranes prepared by sucrose density gradient centrifugation were suspended in 2 ml of SME buffer (20 mM MOPS-tris (pH 7.0), 0.3 M sucrose, 5 mM EDTA, 10 µg/ml leupeptin, and 10 µg/ml pepstatin) + 25% glycerol, and the resulting suspension was aliquoted and stored at -80°C. Under these conditions, the ATP transport activity, the V-ATPase activity, and the catecholamine transport activity remain fully active for at least one year.
A catecholamine transport inhibition experiment was carried out in the same manner as the ATP transport experiment except that the experiment used a measurement liquid containing 20 mM MOPS-tris (pH 7.0), 0.1 M sucrose, 0.1 M potassium chloride, 5 mM magnesium acetate, and about 5 µg of chromaffin granule membranes. To 0.5 ml of the measurement liquid, 2 mM ATP was added, and the resulting mixture was incubated at 30°C for about 5 minutes, followed by addition of^3 [H]-dopamine thereto to a final concentration of 10 µM. After further incubation at 30°C for 15 minutes, 0.2 ml of the reaction liquid was subjected to suction filtration through a Millipore MCE membrane filter with a pore size of 0.45 µm, and the radioactivity on the filter was measured (N = 3). The substrate, ^3[H]-dopamine, was prepared by mixing 3,4-[RING-2,5,6-^3H]dihydroxyphenylethylamine (dopamine) (30 Ci/mmol) (manufactured by New England Nuclear) with dopamine hydrochloride (manufactured by LKT Laboratories) such that a final concentration of 0.1 mM was achieved during the use.
(§2) Chromaffin granule membrane vesicles were prepared in the same manner as in Example 5, and uptake of radiolabeled ATP into the vesicles was measured. Transport activity of catecholamine (dopamine) and ATP-dependent proton transport by V-ATPase were also measured in the same manner as in Example 5.

[1] = test system: ATP transport activity in isolated chromaffin granule membranes; assay: ATP transport (3H-ATP uptake) in chromaffin granule membrane vesicles; assay type: biochemical, bovine; details: N = 3
Protocol: as §1
An ATP transport inhibition experiment for the chromaffin granule membrane was carried out according to Reference B (Yoshinori Moriyama et al., 2022, Is the vesicular nucleotide transporter a molecular target of eicosapentaenoic acid?, Frontiers in Pharmacology, 103389). About 20 µg of chromaffin granule membranes were added to 0.5 ml of measurement buffer (20 mM MOPS-tris (pH 7.0), 0.3 M sucrose, 5 mM potassium chloride, 5 mM magnesium acetate, 5 mM creatine phosphate, 10 units of creatine kinase, and 1 mM ^3[H]-ATP [15 KBq/assay]), followed by incubation at 30°C for 1 hour. Through a Millipore MCE membrane filter with a pore size 0.45 µm, 0.2 ml of the reaction liquid was filtered by suction. Thereafter, the filter was washed with 10 ml of 20 mM MOPS-tris (pH 7.0), 0.3 M sucrose, 5 mM potassium chloride, and 5 mM magnesium acetate, and dissolved in 10 ml of Clear-sol II (manufactured by Nacalai Tesque, Inc.). The radioactivity was then measured using a liquid scintillation counter (N = 3).
The reaction was initiated by adding 50 mM ^3[H]-ATP to a final concentration of 1 mM. The 50 mM ^3[H]-ATP was prepared by mixing an ATP-tris solution (manufactured by Sigma-Aldrich) with [2,8-^3H] adenosine triphosphate tetrasodium salt (26.0 Ci/mmol) (manufactured by New England Nuclear). PEP was used as a test reagent, and pyruvic acid was used as a negative control. Five minutes before the addition of ATP, PEP or pyruvic acid, as a solution in 20 mM MOPS-tris (pH 7.0), 0.3 M sucrose, 5 mM potassium chloride, and 5 mM magnesium acetate, was added to the measurement liquid to a final PEP concentration of 0.02, 0.05, 0.1, 0.2, 0.4, or 1 mM, or to a final pyruvic acid concentration of 0.5 or 1 mM.
as §2

[2] = test system: ATP transport activity in isolated chromaffin granule membranes; assay: as above; assay type: biochemical, bovine; details: MANT-ATP; N = 3
V-ATPase [3] = biological target: T1, V-ATPase (Bos taurus, UniProt P31404); assay: ATP-dependent proton transport by V-ATPase (acridine orange / oxonol-V fluorescence quenching); assay type: biochemical, bovine
T1 construct: from tissue; host or cells: bovine adrenal medulla chromaffin granule membranes
Protocol: as §1
ATP-dependent proton transport by V-ATPase was measured according to Reference B. Proton transport activity was measured using a spectrofluorometer at excitation wavelength of 492 nm and a fluorescence wavelength 540 nm, wherein fluorescence quenching of acridine orange was used as an index (N = 2). The transmembrane potential generated was measured using a spectrofluorometer at an excitation wavelength of 580 nm and a fluorescence wavelength of 630 nm, wherein fluorescence quenching of oxonol-V was used as an index (N = 2). The acridine measurement liquid (2 ml) contained 20 mM MOPS-tris (pH 7.0), 0.2 M sucrose, 0.1 M potassium chloride, 5 mM magnesium acetate, 0.2 µg valinomycin, 2 µM acridine orange, and about 20 µg of chromaffin granules. The oxonol-V measurement liquid (2 ml) contained 20 mM MOPS-tris (pH 7.0), 0.3 M sucrose, 5 mM magnesium acetate, 5 µM oxonol-V, and about 20 µg of chromaffin granules.
as §2

V-ATPase [4] = biological target: V-ATPase (Homo sapiens, UniProt P38606); assay: Inhibitory effect on V-ATPase (data not shown); assay type: biochemical
[5] = test system: human epidermal keratinocytes; assay: LPS-stimulated ATP secretion in keratinocytes; assay type: cell-based; details: 10 µM; 18 hours incubation, LPS 10 µg/ml 10 minutes; N = 8
Protocol: Keratinocytes were cultured in the same manner as in Example 1. Keratinocytes were cultured at 2.5 × 10^4 cells/well in a 24-well plate at 37°C in 5% CO2 for 4 days. The medium was replaced with a test solution (Hanks' balanced salt solution (HBSS) (manufactured by Gibco) supplemented with imeglimin, metformin, or clodronate), and then incubation was performed at 37°C in 5% CO2 for 18 hours. Thereafter, LPS (10 µg/ml) was added thereto, and incubation was further carried out for 10 minutes, followed by collection of 200 µl of the supernatant. The supernatant was immediately treated on a heat block at 95°C for 10 minutes, and ATP in the supernatant was quantified using an ATP Assay Kit - Luminescence (manufactured by Dojindo) (N = 8).

[6] = test system: human epidermal keratinocytes; assay: ATP secretion promoted by ionomycin in keratinocytes; assay type: cell-based; details: 0.1 µM, 6 hours incubation, N = 3
Protocol: Human epidermal keratinocytes (Cryopreserved HEK, Lot 1758, Cell Applications Inc.) were cultured using an Epivita Keratinocyte Growth Medium Kit according to the manufacturer's instructions. The procedure was as follows. A supplement medium was added to a hydrocortisone-containing basal medium included in the medium preparation kit to prepare a complete medium. The medium in the dish was removed by aspiration. The cells were washed with 5 ml of BSS (Gbco), and then the BSS was removed by aspiration. After addition of 5 to 6 ml of trypsin/EDTA solution (Gbco), the dish was incubated at 37°C for 2 minutes. After addition of 5 ml of trypsin neutralization solution, the resulting cell suspension was transferred into two 15-ml Falcon tubes, and centrifuged at 200 × g for 5 minutes. The supernatant was removed by aspiration, and the pelleted cell cluster was suspended in 2 ml of the medium at 4.5 × 10^5 cells/ml. An aliquot of the resulting cell suspension was cryopreserved, while another aliquot was cultured and subjected to measurement.
ATP secretion by human epidermal keratinocytes (hereinafter referred to as "keratinocytes") was measured. Regarding control solutions, Krebs-Ringer HEPES supplemented with 0.2% BSA and 25 mM glucose (hereinafter also referred to as "Krebs/Iono(-)") was used as a negative control, and a solution prepared by adding 5 µM ionomycin to this solution (hereinafter also referred to as "Krebs/Iono(+)") was used as a positive control for ATP secretion. Ionomycin is a Ca^2+ ionophore. Addition of ionomycin to cells is known to promote influx of extracellular Ca^2+ into the cells to increase the intracellular Ca^2+ concentration, resulting in enhancement of ATP secretion. Test solutions were prepared by adding clodronate to Krebs/Iono(-) or Krebs/Iono(+) to a final concentration of 0.1 µM (hereinafter also referred to as "Clo/Iono(-)" or "Clo/Iono(+)", respectively) (N = 3).
Keratinocytes were cultured at 2.5 × 10^4 cells/well in a 24-well plate at 37°C in 5% CO2 for 4 days. The medium was removed by aspiration, replaced with Krebs/Iono(-) or Clo/Iono(-), and incubated at 37°C for 6 hours. These solutions were then removed by aspiration, and the content of each well incubated with Krebs/Iono(-) was replaced with 300 µl of a control solution (Krebs/Iono(-) or Krebs/Iono(+)), while the content of each well incubated with Clo/Iono(-) was replaced with 300 µl of a test solution (Clo/Iono(-) or Clo/Iono(+)). After further incubation at 37°C for 20 minutes, 200 µl of the supernatant was collected. The collected supernatant was immediately treated on a heat block at 95°C for 10 minutes, to inactivate ectonucleotidase. ATP in the supernatant was quantified using a Dojindo ATP assay kit - Luminescence (manufactured by Dojindo Laboratories).
After culturing keratinocytes, the medium was removed by aspiration, and replaced with Krebs/Iono(-), or Krebs/Iono(-) supplemented with 10 µM imeglimin, 0.1 µM EPA, 1 µM EPA, or 10 µM clodronate, followed by incubation for 6 hours. Subsequently, the solution was replaced with either a control solution (Krebs/Iono(-) or Krebs/Iono(+)) or a test solution (Krebs/Iono(+) supplemented with 10 µM imeglimin, 0.1 µM EPA, 1 µM EPA, or 10 µM clodronate), followed by incubation at 37°C for 20 minutes and then collection of 200 µl of the supernatant. The collected supernatant was immediately treated on a heat block at 95°C for 10 minutes to inactivate ectonucleotidase. ATP in the supernatant was quantified using a Dojindo ATP assay kit - Luminescence (manufactured by Dojindo Laboratories).
Keratinocytes were cultured in the same manner as in Example 1, and the medium was replaced with Krebs/Iono(-), Krebs/Iono(-) supplemented with 0.1 µM, 1 µM, or 10 µM imeglimin, or Krebs/Iono(-) supplemented with 0.1 µM, 1 µM, or 10 µM metformin, followed by incubation for 6 hours. […]

VNUT = biological target: T2, VNUT (Homo sapiens, UniProt Q9BYT1); assay: Inhibitory effect on VNUT (data not shown); assay type: biochemical
T2 sequence (Q9BYT1 1-436): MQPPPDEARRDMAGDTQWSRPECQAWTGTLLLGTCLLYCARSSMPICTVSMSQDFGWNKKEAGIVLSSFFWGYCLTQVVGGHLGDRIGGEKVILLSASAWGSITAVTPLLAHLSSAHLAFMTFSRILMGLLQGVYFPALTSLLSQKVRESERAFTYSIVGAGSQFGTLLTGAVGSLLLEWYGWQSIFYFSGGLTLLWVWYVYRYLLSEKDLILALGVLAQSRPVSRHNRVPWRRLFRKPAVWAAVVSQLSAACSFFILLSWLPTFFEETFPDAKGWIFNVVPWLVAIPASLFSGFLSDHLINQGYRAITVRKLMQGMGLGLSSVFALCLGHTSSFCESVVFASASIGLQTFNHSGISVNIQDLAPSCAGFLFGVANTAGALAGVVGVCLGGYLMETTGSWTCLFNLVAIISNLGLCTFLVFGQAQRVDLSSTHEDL

T1 sequence (P31404 whole entry, looked up): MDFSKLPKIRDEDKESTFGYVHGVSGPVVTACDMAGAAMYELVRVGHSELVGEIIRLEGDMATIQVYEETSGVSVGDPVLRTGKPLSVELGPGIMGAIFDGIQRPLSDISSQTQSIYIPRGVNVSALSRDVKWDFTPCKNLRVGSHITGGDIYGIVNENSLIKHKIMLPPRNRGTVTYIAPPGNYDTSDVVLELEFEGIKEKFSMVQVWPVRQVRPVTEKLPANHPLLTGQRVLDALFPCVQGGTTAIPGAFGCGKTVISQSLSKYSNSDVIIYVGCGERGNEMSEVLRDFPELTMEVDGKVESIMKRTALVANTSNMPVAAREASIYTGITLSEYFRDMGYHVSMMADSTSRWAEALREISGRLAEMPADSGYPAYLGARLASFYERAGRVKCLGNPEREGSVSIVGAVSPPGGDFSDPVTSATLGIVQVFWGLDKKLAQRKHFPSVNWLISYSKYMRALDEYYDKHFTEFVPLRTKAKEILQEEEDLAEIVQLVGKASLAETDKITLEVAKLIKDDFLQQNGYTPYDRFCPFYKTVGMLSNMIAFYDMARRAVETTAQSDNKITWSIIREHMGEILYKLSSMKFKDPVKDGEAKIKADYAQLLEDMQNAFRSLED
Sequence of V-ATPase (Homo sapiens, UniProt P38606) (P38606 whole entry): as the sequence (P31404 whole entry, looked up) above, with R10L, V131I, N157S, I199V, S204T, E576D, V590L, A599S counted along it

Row | quenching of acridine orange fluorescence with MANT-ATP as substrate (V-ATPase [3]; addition of 0.1mM MANT-ATP, before addition of ATP) [%] | effect on ATP-dependent proton transport by V-ATPase (V-ATPase [3]; concentrations of up to 100 µM, N = 1) | Compound | effect on the catecholamine transport system (catecholamine transport) | ID50 of ATP transport [1] | inhibition of ATP transport [2] | inhibitory effect on V-ATPase (V-ATPase [4]) | ATP secretion upon LPS stimulation [5] | ATP secretion inhibitory effect, comparison and concentration dependence ([6]; 1 µM, 10 µM) | ATP secretion inhibitory effect [6] | inhibitory effect on VNUT (VNUT)
1 | 34 | did not affect | CNc1ccccc1C(=O)O[C@H]1[C@@H](O)[C@H](n2cnc3c(N)ncnc32)O[C@@H]1COP(=O)(O)OP(=O)(O)OP(=O)(O)O [MANT-ATP, 2'/3'-O-(N-methyl-anthraniloyl)-adenosine-5'-triphosphate triethylammonium salt] | hardly affected | about 30 mM | strongly inhibited ATP transport |  |  |  |  | 
2 |  |  | CN(C)C(=N)N=C(N)N [metformin] |  |  |  | neither imeglimin nor metformin exhibited a strong inhibitory effect | almost completely inhibited | decreased inhibitory effect at higher concentrations | exhibit an ATP secretion inhibitory effect | neither imeglimin nor metformin exhibited a strong inhibitory effect
